# Measured values: patent US20220378715A1, “USE OF CANNABIDIOL PREPARATIONS IN THE TREATMENT OF ABSENCE EPILEPSY” (GW Research Limited, priority 2019, published 2022)
# Assays:
# Format in all cases: in vivo, rat
# WAG/Rij rats [1] = assay: EEG recording of spike wave discharges (SWDs), established absence seizures; conditions: 10 and 100 mg/Kg i.p. twice daily, 14 days; vs control (vehicle); ANOVA across groups; FIG. 2A
# Procedure: The effects of botanically derived purified CBD (>98%) (bCBD) and synthetic CBD (sCBD) at 10 and 100 mg/Kg, i.p. twice daily, for both drugs, was assessed in this animal model, by EEG-recordings and behavioural tests.
# WAG/Rij rats were treated with bCBD or sCBD (10 and 100 mg/Kg, i.p. twice daily, for both drugs) over a chronic test period of at least 14 days.
# Drug treatment was started at about 6 months of age (n=10 for every dose and drug group) and continued for 14 consecutive days, when experimental tests were performed (treatment was also continued during the experimental procedure phase. Age-matched control (vehicle) WAG/Rij rats (n =10) were kept under the same housing conditions over the same period of time with vehicle (1:1:18, Ethanol:kolliphor HS15:saline; i.p.).
# WAG/Rij rats (n=10) underwent 2 EEG-recording periods in 2 consecutive days (one session per day). Every recording session lasted 3 hours and was performed 1 hour after drug administration. […]
# All animals were allowed at least 1 week of recovery and handled twice a day. […] The blinded quantification of absence seizures was based on the number and the duration of EEG Spike Wave Discharges (SWDs).
# All statistical procedures were performed using GraphPad Prism 6.0 (GraphPad Software, Inc., La Jolla, CA, USA). EEG recordings were subdivided into 30-min epochs, and the duration and number of SWDs were evaluated separately.
# WAG/Rij rats [2] = assay: Forced swimming test (FST); conditions: for immobility time: sub-chronic, vs control
# Procedure: (§1) To test the effects bCBD and sCBD on epileptic comorbidities, separate groups (n=10) of treated and vehicle WAG/Rij rats at 6 months of age were subjected to several behavioural tests (see below—cohort 2).
# (§2) All behavioural tests were performed 1-hour post-dose in the morning. All experimental groups were subjected to a single test per day. […].
# The FST, is currently the most reliable method to rapidly screen compounds for antidepressant activity in rodents; we used an FST protocol previously standardized in our laboratories for WAG/Rij rats.
# Briefly, rats were placed individually for 6 min into a glass cylinder (height 47 cm, diameter 38 cm) filled with 38 cm of water maintained between 23° C. and 25° C. The total duration of immobility (immobility time) was recorded during the last 4 min of a 6-min testing period. The criterion for immobility and passive swimming (immobility time) was floating vertically in the water while making only those movements essential to keep the head above the surface of the water, which is directly proportional to depressive-like behaviour. At the end of the FST, rats were removed and dried with a towel before being returned to their home cage. Mean swimming velocity and total distance moved were also measured and examined for every experimental group in order to check for any obvious locomotor impairment.
# WAG/Rij rats [3] = assay: Elevated plus maze (EPM); conditions: 10 and 100 mg/Kg; p=0.67; FIG. 3B
# Procedure: as §1, §2
# The EPM consists of 2 opposing open arms and 2 opposing closed arms of the same size (45 cm×10 cm) with 10 cm high walls connected by a central platform (10×10 cm) and elevated 80 cm above the floor. Rats are positioned in the central platform facing a closed arm and the number of entries into, time spent on each arm, and central platform are measured.
# The maze was systematically cleaned (Disposable towels and 70% ethanol solution) to remove olfactory cues, after each animal was tested. The shorter the time spent in open arms and central platform the higher the anxiety is and vice versa. Mean velocity and total distance moved were also measured and examined for every experimental group.
# WAG/Rij rats [4] = assay: Passive avoidance (PA)
# Procedure: as §1, §2
# Rats were tested in a step-through type passive avoidance apparatus (Ugo Basile, Italy, model 40,550), measuring 57×27×30 cm, consisting of a cage divided into two chambers (light and dark) by a sliding door.
# The PA test was carried out over two successive days. Briefly, on day one (pre-acquisition trial or habituation), rats were introduced individually in the light compartment and allowed to freely explore the cage for 5 min. The acquisition or conditioning trial was conducted 15 min after habituation. Rats were individually introduced in the light compartment.; following a 30 s adaptation time, the sliding door between the two compartments was opened. When rats completely entered into the dark compartment, the sliding door was automatically closed and an electrical foot-shock (0.5 mA for 3 s) was delivered via the floor grid.
# The latency to enter (s) in the dark compartment was detected and analysed. The retention or memory trial was evaluated 24 h after the acquisition trial, by recording their latency to enter (s) in the dark compartment. The latency to enter in the dark compartment was directly linked to the retention memory: the better the memory, the greater the latency.
# WAG/Rij rats [5] = assay: Novel object recognition test (nORT)
# Procedure: as §1, §2
# The nORT was performed as previously described by Bartolini et al. with some minor modifications. Briefly, three days before nORT, rats were exposed to a habituation trial lasting 6 min.
# During this trial, each rat was allowed to freely explore an opaque open field Plexiglas box (70×70×30 cm). To investigate short-term memory, in the familiarization trial (T1) two identical objects (wood cubes) were located in two opposite corners of the box. Each rat was placed in the centre of the open field, facing away from the sample objects and left to explore freely the objects for a maximum of 5 min, before returning to its home cage. The familiarization trial ended when the rat completed 20 s of exploration for each object.
# Exploration was considered directing the nose at a distance <2 cm to the object and/or touching it with the nose and sniffing. After a retention interval of 60 min the test phase (T2) was conducted.
# After this session, the rat returned to home cage. The time spent exploring the familiar (F) and the novel object (N) was recorded separately and a discrimination index (DI) was calculated (DI=N−F/N+F). To avoid olfactory cues both the objects and the box were cleaned with 70% ethanol solution after each session.
# Furthermore, to avoid place preference, the role (familiar or novel object) and the position of the two objects during T2 were randomly changed. Total distance moved (cm) was also evaluated and analysed for every experimental group in order to check for locomotor deficits.
# WAG/Rij rats [6] = assay: Three chamber test (TCT), sociability
# Procedure: as §1, §2
# Three-chambered approach (sociability) is an automated, widely used and well validated assay that compares time that the subject (rodent) spends with a novel animal versus time spent with a non-social inanimate object.
# The three-chamber apparatus is a non-transparent white plastic box with two transparent acrylic partitions with a rectangular opening. The acrylic partitions divide the box into three chambers (left, centre, and right), illuminated at 120 lux. The animal is placed in the middle chamber with the dividers closed to allow it to explore the middle chamber for ten minutes.
# After this habituation period, an unfamiliar adult animal is placed inside a small wire cage in one of the side chambers. An identical wire cage with an inanimate object is placed in the opposite chamber. The dividers are then raised, allowing the test subject to move freely throughout all three chambers of the apparatus over a 10-minute test session. […]
# WAG/Rij rats [7] = assay: Rotarod test (RT); conditions: 10 and 100 mg/Kg; p=0.9455; data not shown
# Procedure: The Rotarod apparatus (Ugo Basile, Varese, Italy) consists of a base platform and a rotating rod with a diameter of 6 cm and a non-slippery surface. The integrity of motor coordination is assessed on the basis of the time the animals keep their balance on the accelerating rotating rod up to a maximum of 10 min (600 s).
# Briefly, rats were pre-trained for 2 days in order to reach a stable performance. After the training, the rotation of the rod was gradually accelerated from 5 rpm to 50 rpm. After a maximum of 3 falls from the rod, the test is suspended and the time is recorded, the result is a mean of the 3 measures.
smiles,measurement,setting,value
"C=C(C)[C@@H]1CCC(C)=C[C@H]1c1c(O)cc(CCCCC)cc1O [sCBD, cannabidiol]",mean number of spike wave discharges (nSWDs),WAG/Rij rats [1],"did not significantly (F4,45=2.572; p=0.0504; n=10 per group) alter"
same,"immobility time, overall","WAG/Rij rats [2]; 10 and 100 mg/Kg, vs control (vehicle), ANOVA across groups, FIG. 3A","significantly (F4,45=12.29; p<0.0001; n=10 per group) reduce"
same,immobility time,WAG/Rij rats [2]; higher dose (100 mg/Kg i.p. twice daily),significant reduction
same,immobility time,WAG/Rij rats [2]; lower dose (10 mg/Kg i.p. twice daily),not effective
same,anxiety-like behaviour,WAG/Rij rats [3],not affected
same,latency to enter in the dark compartment,"WAG/Rij rats [4]; conditioning trial, 10 and 100 mg/Kg, data not shown",no significant effect
same,latency to enter in the dark compartment,"WAG/Rij rats [4]; retention session, higher dose (100 mg/Kg), vs control",did not significantly modify
same,latency to enter in the dark compartment,"WAG/Rij rats [4]; retention session, lower dose (10 mg/Kg), vs control",did not significantly modify
same,discrimination index (DI),"WAG/Rij rats [5]; 100 mg/Kg, vs vehicle",significantly increased
same,"discrimination index (DI), overall","WAG/Rij rats [5]; 10 and 100 mg/Kg, ANOVA across groups, FIG. 3D","significantly (F4,45=6.009; p=0.0006; n=10 per group) affect"
same,discrimination index (DI),"WAG/Rij rats [5]; lower dose (10 mg/Kg), vs control",did not significantly
same,time spent in the novel rat chamber vs the novel object chamber,"WAG/Rij rats [6]; 100 mg/Kg, sub-chronic",significantly more time in the novel rat chamber
same,time spent sniffing the novel rats,"WAG/Rij rats [6]; higher dose (100 mg/Kg), vs control rats, p<0.0001",significantly increased
same,rotarod test results (motor coordination),WAG/Rij rats [7],did not influence
